PMC6500773 (Psychopharmacology, 2018)
Where two headings read alike, the source gives them in different places.

Experiments:
hDAT [1] = molecular target: T1, hDAT (Homo sapiens, UniProt Q01959); assay: Inhibition of [125I]RTI-55 binding, HEK-hDAT membranes
hNET [2] = molecular target: T2, hNET (Homo sapiens, UniProt P23975); assay: biochemical; assay type: binding
hDAT [3] = molecular target: T1, hDAT; assay: Inhibition of [3H]DA uptake by HEK-hDAT cells; assay type: cell-based; conditions: for Ratio DAT/SERT: 1/(DAT IC50) divided by 1/(SERT IC50), uptake, higher = more DAT selective
hNET [4] = molecular target: T2, hNET; assay: cell-based
hDAT [5] = molecular target: T1, hDAT; assay: Drug-induced release of preloaded [3H]DA from HEK-hDAT cells; assay type: cell-based; conditions: for releasing efficacy at hDAT: [3H]DA release; for % maximum release ± sem, hDAT [3H]DA: relative to maximal AUC induced by METH (1 or 10 μM)
hSERT [6] = molecular target: T3, hSERT (Homo sapiens, UniProt P31645); assay: Drug-induced release of preloaded [3H]5-HT from HEK-hSERT cells; assay type: cell-based; conditions: for releasing efficacy at hSERT: [3H]5-HT release; for % maximum release ± sem, hSERT [3H]5-HT: relative to maximal AUC induced by METH (0.3–1 mM)
hNET [7] = molecular target: T2, hNET; assay: Drug-induced release of preloaded [3H]NE from HEK-hNET cells; assay type: cell-based; conditions: for releasing efficacy at hNET: [3H]NE release; for % maximum release ± sem, hNET [3H]NE: relative to maximal AUC induced by METH (0.3 or 1 μM)
mouse striatum = conditions: administered orally, ref Fuwa et al. 2016; cited from earlier work
hSERT [8] = molecular target: T3, hSERT; assay: Inhibition of [125I]RTI-55 binding, HEK-hSERT membranes
hSERT [9] = molecular target: T3, hSERT; assay: Inhibition of [3H]5-HT uptake by HEK-hSERT cells; assay type: cell-based
hDAT [10] = molecular target: T1, hDAT; conditions: relative to maximal METH release; ref Eshleman et al. 2017; cited from earlier work
hSERT [11] = molecular target: T3, hSERT; conditions: relative to maximal METH release; ref Eshleman et al. 2017; cited from earlier work
hNET [12] = molecular target: T2, hNET; conditions: ref Eshleman et al. 2017, cited from earlier work
hDAT [13] = molecular target: T1, hDAT; conditions: cited from earlier work; for Ratio DAT/SERT: 1/(DAT IC50) divided by 1/(SERT IC50), uptake, ref Eshleman et al. 2017
hNET [14] = molecular target: T2, hNET; conditions: read-out: Inhibition of [3H]neurotransmitter uptake IC50 ± sem, hNET [3H]NE; HEK-hNET cells; ref Eshleman et al. 2017; cited from earlier work
[15] = read-out: Inhibition of [125I]RTI-55 binding Ki ± sem, hDAT, HEK-hDAT membranes
[16] = read-out: Inhibition of [125I]RTI-55 binding Ki ± sem, hNET, HEK-hNET membranes
[17] = read-out: Inhibition of [3H]neurotransmitter uptake IC50 ± sem, hNET [3H]NE, HEK-hNET cells
[18] = read-out: Drug-induced release of [3H]neurotransmitter EC50 ± sem, hNET [3H]NE, HEK-hNET cells

T1 sequence (Q01959 whole entry): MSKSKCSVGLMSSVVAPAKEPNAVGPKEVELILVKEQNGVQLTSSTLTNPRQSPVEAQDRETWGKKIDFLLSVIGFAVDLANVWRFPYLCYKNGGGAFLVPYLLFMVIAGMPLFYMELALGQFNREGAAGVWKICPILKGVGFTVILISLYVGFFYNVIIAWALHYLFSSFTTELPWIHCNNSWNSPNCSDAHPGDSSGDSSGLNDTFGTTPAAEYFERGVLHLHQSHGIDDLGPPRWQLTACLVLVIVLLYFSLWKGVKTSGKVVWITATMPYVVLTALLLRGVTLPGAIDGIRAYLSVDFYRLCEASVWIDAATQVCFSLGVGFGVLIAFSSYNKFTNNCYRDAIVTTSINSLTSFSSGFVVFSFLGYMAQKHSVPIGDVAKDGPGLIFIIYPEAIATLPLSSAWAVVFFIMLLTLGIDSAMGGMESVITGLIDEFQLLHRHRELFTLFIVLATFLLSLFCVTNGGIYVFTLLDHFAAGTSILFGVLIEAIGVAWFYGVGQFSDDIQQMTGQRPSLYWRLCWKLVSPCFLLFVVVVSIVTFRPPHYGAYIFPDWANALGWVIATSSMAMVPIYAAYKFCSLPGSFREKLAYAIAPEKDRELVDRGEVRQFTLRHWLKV
T3 sequence (P31645 whole entry): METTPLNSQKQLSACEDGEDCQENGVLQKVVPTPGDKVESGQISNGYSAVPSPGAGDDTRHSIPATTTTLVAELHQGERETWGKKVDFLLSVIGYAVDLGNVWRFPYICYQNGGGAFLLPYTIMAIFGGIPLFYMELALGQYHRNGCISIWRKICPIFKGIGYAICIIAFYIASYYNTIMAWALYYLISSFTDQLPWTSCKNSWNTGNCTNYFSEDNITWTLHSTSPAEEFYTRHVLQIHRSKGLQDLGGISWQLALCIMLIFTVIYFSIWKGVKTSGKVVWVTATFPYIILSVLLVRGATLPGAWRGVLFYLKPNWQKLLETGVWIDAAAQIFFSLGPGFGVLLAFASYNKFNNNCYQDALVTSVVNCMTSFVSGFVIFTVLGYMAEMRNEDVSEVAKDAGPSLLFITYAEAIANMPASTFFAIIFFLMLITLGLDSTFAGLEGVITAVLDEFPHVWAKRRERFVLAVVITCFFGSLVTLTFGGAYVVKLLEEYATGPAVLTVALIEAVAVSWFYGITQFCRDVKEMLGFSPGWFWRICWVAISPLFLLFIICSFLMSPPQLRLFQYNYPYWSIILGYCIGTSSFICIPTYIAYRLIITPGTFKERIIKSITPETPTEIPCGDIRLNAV
T2 sequence (P23975 whole entry): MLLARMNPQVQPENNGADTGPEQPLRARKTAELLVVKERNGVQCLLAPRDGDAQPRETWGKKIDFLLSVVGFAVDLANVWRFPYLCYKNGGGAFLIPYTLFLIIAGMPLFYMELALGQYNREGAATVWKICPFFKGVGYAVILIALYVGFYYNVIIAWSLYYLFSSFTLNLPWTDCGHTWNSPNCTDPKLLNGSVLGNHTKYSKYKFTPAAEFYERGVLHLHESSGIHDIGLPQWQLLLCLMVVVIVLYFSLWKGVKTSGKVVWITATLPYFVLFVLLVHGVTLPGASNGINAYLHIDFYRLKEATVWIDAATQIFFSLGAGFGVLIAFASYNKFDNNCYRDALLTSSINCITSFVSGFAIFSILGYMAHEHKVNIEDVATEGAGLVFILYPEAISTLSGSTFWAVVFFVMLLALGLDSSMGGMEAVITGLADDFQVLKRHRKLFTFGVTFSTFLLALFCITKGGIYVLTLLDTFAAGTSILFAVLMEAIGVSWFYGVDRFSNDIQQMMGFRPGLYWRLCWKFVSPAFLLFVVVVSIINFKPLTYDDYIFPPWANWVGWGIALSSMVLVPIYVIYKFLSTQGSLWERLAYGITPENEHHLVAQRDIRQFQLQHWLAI

## CNC(C)Cc1cc2ccccc2o1 (stereo not drawn) [2-MAPB, N,α-dimethyl-2-benzofuranethanamine]
hDAT [1]; [15]
  Ki: 1630 ± 440 nM
hNET [2]; [16]
  Ki: 1990 ± 220 nM
hDAT [3]
  Ratio DAT/SERT: 3.0
hNET [4]; [17]
  IC50: 39.3 ± 5.2 nM
hDAT [5]
  releasing efficacy at hDAT: partial release
  % maximum release ± sem, hDAT [3H]DA: 48.0 ± 2.6%
hSERT [6]
  releasing efficacy at hSERT: partial release
  % maximum release ± sem, hSERT [3H]5-HT: 77.3 ± 5.3%
hNET [7]
  releasing efficacy at hNET: partial release
  % maximum release ± sem, hNET [3H]NE: 63 ± 10%
hNET [7]; [18]
  EC50: 450 ± 120 nM
Mouse striatum
  increase in extracellular 5-HT levels: 6- to 12 fold

## CCCC(NCC)C(=O)c1ccc(C)cc1 (stereo not drawn) [4-MEAP, 4-methyl-α-ethylaminopentiophenone]
hDAT [1]; [15]
  Ki: 123 ± 26 nM
hSERT [8]; compared to pentedrone
  fold increase in hSERT affinity: 20 fold
hNET [2]; [16]
  Ki: 576 ± 85 nM
hDAT [3]
  Ratio DAT/SERT: 6.4
hDAT [3]; compared to pentedrone
  fold decrease in hDAT selectivity: 8 fold
hDAT [3]; compared to α-EPP
  fold decrease in DAT selectivity: 10 fold
hSERT [9]; compared to pentedrone
  fold increase in hSERT uptake potency: 8 fold
hNET [4]; [17]
  IC50: 83 ± 18 nM

## CCCCC(C(=O)c1ccc(C)cc1)N1CCCC1 (stereo not drawn) [4-Me-α-PHP, 4’-methyl-α–pyrrolidinohexanophenone]
hDAT [1]
  Ki: 23 ± 6.2 nM
hSERT [8]
  Ki: 4780 ± 260 nM
hNET [2]
  Ki: 750 ± 160 nM
hDAT [3]
  IC50: 13.2 ± 3.6 nM
  Ratio DAT/SERT: 120
hSERT [9]
  IC50: 1580 ± 400 nM
hNET [4]
  IC50: 42 ± 11 nM

## CCNC(C)Cc1ccc2occc2c1 (stereo not drawn) [5-EAPB, reference compound]
Mouse striatum
  increase in extracellular 5-HT levels: 6- to 12 fold

## CNC(C)Cc1ccc2occc2c1 (stereo not drawn) [5-MAPB, N,α-dimethyl-5-benzofuranethanamine]
hDAT [1]; [15]
  Ki: 2660 ± 610 nM
hNET [2]; [16]
  Ki: 3150 ± 270 nM
hDAT [3]
  Ratio DAT/SERT: 1.4
hNET [4]; [17]
  IC50: 73 ± 18 nM
hDAT [5]
  releasing efficacy at hDAT: partially efficacious
  % maximum release ± sem, hDAT [3H]DA: 53.8 ± 6.6%
hSERT [6]
  releasing efficacy at hSERT: fully efficacious
  % maximum release ± sem, hSERT [3H]5-HT: 104.3 ± 5.7%
hNET [7]
  releasing efficacy at hNET: partially efficacious
  % maximum release ± sem, hNET [3H]NE: 89.0 ± 8.0%
hNET [7]; [18]
  EC50: 580 ± 210 nM
Mouse striatum
  increase in extracellular 5-HT levels: 6- to 12 fold

## CNC(C)Cc1ccc2c(c1)CCO2 (stereo not drawn) [5-MAPDB, 1-(2,3-dihydrobenzofuran-5-yl)-N-methylpropan-2-amine]
hDAT [1]
  Ki: > 30000 nM
hSERT [8]
  Ki: 8800 ± 1700 nM
hNET [2]
  Ki: > 30000 nM
hDAT [3]
  IC50: 2790 ± 800 nM
  Ratio DAT/SERT: 0.041
hSERT [9]
  IC50: 113 ± 30 nM
hSERT [9]; uptake inhibition potencies
  selectivity for SERT over DAT (uptake potency): 25 fold
hNET [4]
  IC50: 560 ± 180 nM
hDAT [5]
  EC50: 34700 ± 9600 nM
  % maximum release ± sem, hDAT [3H]DA: 32 ± 13%
hSERT [6]
  EC50: 340 ± 35 nM
  releasing efficacy at hSERT: fully efficacious
  % maximum release ± sem, hSERT [3H]5-HT: 95.7 ± 8.9%
hNET [7]
  EC50: 840 ± 310 nM
  % maximum release ± sem, hNET [3H]NE: 64.2 ± 4.7%

## CNC(C)Cc1ccc2c(c1)OCO2 (stereo not drawn) [MDMA, reference compound]
hDAT [1]; [15]
  Ki: 31000 ± 4900 nM
hNET [2]; read-out: Inhibition of [125I]RTI-55 binding Ki ± sem, hNET
  Ki: 15800 nM
hDAT [3]
  Ratio DAT/SERT: 0.25
hNET [4]; read-out: Inhibition of [3H]neurotransmitter uptake IC50 ± sem, hNET [3H]NE
  IC50: 630 nM
hDAT [10]
  % maximum release ± sem, hDAT [3H]DA: 94 ± 10%
hSERT [11]
  % maximum release ± sem, hSERT [3H]5-HT: 85.1 ± 7.8%
hNET [12]; [18]
  EC50: 360 ± 92 nM
hNET [12]; relative to maximal METH release
  % maximum release ± sem, hNET [3H]NE: 147 ± 15%

## CN[C@@H](C)Cc1ccccc1 [METH, methamphetamine, reference compound]
hDAT [1]
  Ki: 4410 ± 430 nM
hSERT [8]
  Ki: 150000 ± 17000 nM
hNET [2]
  Ki: 2510 ± 240 nM
hDAT [3]
  IC50: 97 ± 13 nM
  Ratio DAT/SERT: 96
hSERT [9]
  IC50: 9300 ± 1100 nM
hNET [4]; [17]
  IC50: 25.8 ± 3 nM
hDAT [5]
  EC50: 1200 ± 350 nM
  % maximum release ± sem, hDAT [3H]DA: 106.7 ± 2.3%
hSERT [6]
  EC50: 14500 ± 4200 nM
  % maximum release ± sem, hSERT [3H]5-HT: 101.8 ± 3.1%
hNET [7]
  EC50: 255 ± 78 nM
  % maximum release ± sem, hNET [3H]NE: 107.5 ± 8.7%

## CNC(COC)C(=O)c1ccc(C)cc1 (stereo not drawn) [Mexedrone, 3-methoxy-2-(methylamino)-1-(p-tolyl)propan-1-one]
hDAT [1]
  Ki: 8390 ± 540 nM
hSERT [8]
  Ki: 22200 ± 6200 nM
hNET [2]
  Ki: > 27600 nM
hDAT [3]
  IC50: 2750 ± 220 nM
  Ratio DAT/SERT: 2.0
hSERT [9]
  IC50: 5400 ± 1200 nM
hNET [4]
  IC50: 3190 ± 980 nM
hDAT [5]
  EC50: > 100000 nM
  releasing efficacy at hDAT: no hDAT efficacy
  % maximum release ± sem, hDAT [3H]DA: 3.04 ± 0.61%
hSERT [6]
  EC50: 26100 ± 9300 nM
  releasing efficacy at hSERT: full efficacy
  % maximum release ± sem, hSERT [3H]5-HT: 84 ± 13%
hNET [7]
  EC50: > 61000 nM
  releasing efficacy at hNET: minimal hNET efficacy
  % maximum release ± sem, hNET [3H]NE: 12.5 ± 3.1%

## CCCC(NC)C(=O)c1ccccc1 (stereo not drawn) [Pentedrone]
hDAT [13]
  Ratio DAT/SERT: 51
hNET [14]
  IC50: 239 ± 67 nM

## CCCC(NC)C(=O)c1ccc2c(c1)OCO2 (stereo not drawn) [Pentylone]
hDAT [13]
  Ratio DAT/SERT: 4.9
hNET [14]
  IC50: 650 ± 160 nM

## CCCC(Cc1ccccc1)N1CCCC1 (stereo not drawn) [Prolintane, 1-[1-(phenylmethyl)butyl]-pyrrolidine]
hDAT [1]
  Ki: 219 ± 19 nM
hSERT [8]
  Ki: 2520 ± 330 nM
hNET [2]
  Ki: 560 ± 190 nM
hDAT [3]
  IC50: 100 ± 21 nM
  Ratio DAT/SERT: 11
hSERT [9]
  IC50: 1110 ± 350 nM
hSERT [9]; compared to 4-F-α-PVP
  fold higher hSERT uptake potency: 40 fold
hNET [4]
  IC50: 46 ± 6.8 nM

## CCNC(C)C(=O)c1ccc2c(c1)OCO2 (stereo not drawn) [ethylone]
hDAT [13]
  Ratio DAT/SERT: 0.27

## CNC(C)C(=O)c1ccc(C)cc1 (stereo not drawn) [mephedrone]
hDAT [13]; ref Eshleman et al. 2013, Luethi et al. 2018
  DAT selectivity (DAT/SERT): 5.2 fold

## CCCC(C(=O)c1ccccc1)N1CCCC1 (stereo not drawn) [α-PVP]
hDAT [13]
  Ratio DAT/SERT: 2900
hNET [14]
  IC50: 46 ± 18 nM
